Source: ChEMBL document CHEMBL1157539, “Thousands of chemical starting points for antimalarial lead identification” (Nature, 2010)

test system: Plasmodium falciparum; assay: GSK_TCMDC: Inhibition of Plasmodium falciparum 3D7 in whole erythrocytes, using parasite LDH activity as an index of growth.; assay type: functional, organism-based; settings: Plasmodium falciparum, 3D7

Structure (SMILES) | XC50
CCOC(=O)CCCOc1c(OC)cc(Cc2cnc(N)nc2N)cc1OC | 778 nM
CC1CCCN1Cc1ccc(-c2ccc3c(=O)cc(CCc4cccc(F)c4F)n(CC(=O)N(C)Cc4ccc(-c5ccc(C(F)(F)F)cc5)cc4)c3n2)cc1 (configuration not stated) | 823 nM
COc1ccc(Cl)cc1NC(=O)Nc1cc(C)nc2ccccc12 | 287 nM
Cc1cccc2nc(-c3cccc(-c4ccc(NC(=O)c5ccoc5)cc4)c3)[nH]c12 | 703 nM
COc1ccc2nc3cc(Cl)ccc3c(NCCCCN)c2c1 | 732 nM
CC(Cc1ccc(OCCOc2ccccc2)cc1)NCC(O)c1cccc(C(F)(F)F)c1 (configuration not stated) | 968 nM
CC(C)c1ccc(-c2nc3cc(Cl)cnc3[nH]2)cc1 | 857 nM
Cc1ccc(C(=O)Nc2cc(S(=O)(=O)N3CCCC3)ccc2OCC(F)(F)F)cc1 | 851 nM
NCc1ccc(-c2ccc3c(N)nccc3c2)cc1 | 885 nM
Clc1ccc(-c2nc(-c3ccncc3)c[nH]2)cc1Cl | 1060 nM
CCCNC(=O)C1CCN(C(c2ccc(Cl)cc2)c2ccc(Cl)cc2)CC1 | 479 nM
Cn1c(CN2CCC(N3CCc4cc(NC(=O)c5ccco5)ccc43)C2)cc2ccccc21 (configuration not stated) | 876 nM
COc1cc2c(cc1OC)CN(c1cc(N)c3cc(OC)c(OC)cc3n1)CC2 | 552 nM
Cc1cc(N[C@@H](Cc2ccccc2)C(=O)Nc2ccccc2)nc(NCCc2ccc(F)cc2)n1 | 860 nM
O=C(Cc1cccs1)NC(CCCN1CCC(Oc2cccc(Cl)c2)CC1)c1ccc(Cl)c(Cl)c1 (configuration not stated) | 247 nM
O=C(Nc1ccc(Cl)cc1)OCCn1nnnc1C(c1ccc(Cl)cc1)N1CCOCC1 (configuration not stated) | 1180 nM
c1ccc(Oc2ccc(Nc3ccnc4cc(-c5cccc(CNCCN6CCOCC6)c5)ccc34)cc2)cc1 | 391 nM
CCCNCc1ccc(-c2ccc(CN(CC3CCCO3)C(=O)C3CC(=O)c4ccccc43)cc2)nc1 (configuration not stated) | 860 nM
COc1ccc(NC(=O)CCNc2cc(C)nc(NCc3cccc(C)c3)n2)cc1 | 1090 nM
CC[C@H]1CN2CC[C@H]1C[C@H]2[C@H](O)c1ccnc2ccc(C#N)cc12 | 147 nM
COc1ccc(CNC2CCN(C)CC2)cc1-c1ccc(S(=O)(=O)NCc2cccnc2)s1 | 835 nM
C[C@H](Cc1ccc(OCCNC[C@H](O)c2cccc(Cl)c2)cc1)NC[C@H](O)c1ccc(Cl)c(Cl)c1 | 958 nM
Nc1ccc(-c2nc3cc(-c4ccc5[nH]c(-c6ccc(N)cc6)nc5c4)ccc3[nH]2)cc1 | 129 nM
COc1ccc(-c2ccc(NC(=O)c3cccc(Cl)c3)c(F)c2)cc1CN1CCCN(C)CC1 | 679 nM
Oc1cccc(-c2nc(-c3ccccc3)c(-c3ccc(Oc4ccc(-c5[nH]c(-c6cccc(O)c6)nc5-c5ccccc5)cc4)cc3)[nH]2)c1 | 855 nM

Structure (SMILES) | XC50
Cc1ccc(-c2ccc3c(c2)C=C(C(=O)NC2CCN(CCNC(=O)c4cccs4)CC2)CCC3)cc1 | 227 nM
O=C(NCC1CCN(CC2CCCCC2)C1)c1cc(-c2cccc(C(F)(F)F)c2)cs1 (configuration not stated) | 738 nM
Cc1sc2nc(CSc3ccccc3)nc(N3CCN(CC(=O)N4CCCC4)CC3)c2c1C | 1260 nM
CN1CCN(Cc2c(O)ccc3c(=O)c(Oc4ccc(C(C)(C)C)cc4)c(C(F)(F)F)oc23)CC1 | 812 nM
CN1CCCc2ccc(NC(=O)C=Cc3ccc(-c4ccc(F)cc4F)o3)cc2C1 | 522 nM
CN1CCCC(CN2CCN(Cc3ccc(-c4ccc(-c5nc6cc(F)ccc6[nH]5)s4)cc3)CC2)C1 (configuration not stated) | 127 nM
O=C(Nc1cccc(-c2nn3ncccc3c2-c2ccnc(Nc3cccnc3)n2)c1)c1c(F)cccc1F | 528 nM
c1ccc(C2CCC(N3CCC(N4CCN(c5ccccc5)CC4)CC3)CC2)cc1 (configuration not stated) | 764 nM
Cc1c(C)c2c(c(C)c1O)CC[C@@](C)(C(=O)NC1CCC(CN3CCC(c4c[nH]c5ccccc45)CC3)CC1)O2 (some centres not stated) | 965 nM
CN(C)CCCNC(=O)c1ccccc1Sc1ccccc1C#N | 1140 nM
Cc1ccc(Nc2nc(C)cc(NC3CCCC3)n2)cc1 | 292 nM
COc1ccc(Nc2nccc(N3CCC(NS(=O)(=O)c4ccc(NC(C)=O)cc4)C3)n2)cc1 (configuration not stated) | 795 nM
O=C(NC1CCCCC1)N(Cc1ccc(-c2cccc(CNC3CCCC3)c2)cc1)C1CCN(Cc2ccccc2)CC1 | 785 nM
COc1ccc2nc(N(CCCn3ccnc3)C(=O)C=Cc3cccs3)sc2c1 | 1050 nM
COc1ccc(CCc2ccc(-c3c(C)[nH]c(C)c(Cl)c3=O)cc2)cc1OC | 94 nM
CS(=O)(=O)c1ccc(CCNCc2ccc(-c3ccc(CN(C(=O)C4CC(=O)c5ccccc54)C4Cc5ccccc5C4)cc3)nc2)cc1 (configuration not stated) | 858 nM
Clc1ccc(Nc2nc3ccc(Cl)cc3nc2Nc2ccc(Cl)cc2)cc1 | 133 nM
COc1ccc2c(NN=Cc3ccc(F)cc3)ccnc2c1 | 438 nM
CN1CCN(C(C(=O)NCc2cc(Cl)cc(Cl)c2)c2ccccc2-c2ccsc2)CC1 (configuration not stated) | 936 nM
O=C(NCCN1CCCc2ccccc21)C1CCN(c2nc(-c3ccc(Cl)cc3)no2)CC1 | 695 nM
CC(=O)NCCNc1nccc(N2CCc3ncnc(Nc4ccc(OCc5ccccn5)c(Cl)c4)c3C2)n1 | 822 nM
Nc1ccnc2ccc(NC(=O)CCCCCc3ccccc3)cc12 | 860 nM
FC(F)(F)c1ccc2[nH]ccc(=NN=Cc3ccccc3)c2c1 | 1170 nM
Cc1ccc(OCCCCON2C(=N)N=C(N)NC2(C)C)cc1C | 3.2 nM
O=C(Nc1ccc(Cl)cc1)Nc1cccc(-c2cccc(-c3nc4cc(C(F)(F)F)ccc4[nH]3)c2)c1 | 227 nM

Structure (SMILES) | XC50
COc1ccc(-c2cnn3ccc(Nc4cc(OC)c(OC)c(OC)c4)nc23)cc1OC | 650 nM
O=C(/C=C/c1ccc(Cl)c(Cl)c1)NCCCCCN1CCC(NC(=O)Nc2cccc(C(F)(F)F)c2)CC1 | 697 nM
N=C(N)NCCN(Cc1ccccc1)c1ccccc1 | 345 nM
O=C(/C=C/c1cccc(OC(F)(F)F)c1)NCCCCCN1CCC(c2c[nH]c3ccccc23)CC1 | 958 nM
Nc1nccc2ccc(-c3ccc4nccn4c3)cc12 | 101 nM
Cc1cc(OCCCN2CCC(NS(=O)(=O)c3ccc(Cl)c(Cl)c3)CC2)c2ccccc2n1 | 897 nM
CCOc1cc(C(=O)NCc2cc(Cl)cc(Cl)c2)ccc1-c1nc2cc(Cl)ccc2[nH]1 | 730 nM
CC(=O)c1ccc(-c2ccc(C(=O)NCCCCN3CCC(c4ccc5c(c4OCC(N)=O)CCCC5)CC3)cc2)s1 | 893 nM
O=C(c1cccc(-c2ccc(-c3nc4cc(C(F)(F)F)ccc4[nH]3)cc2)c1)N1CCCCC1CN1CCC(O)C1 (configuration not stated) | 465 nM
O=S(=O)(Nc1cc2c(cc1O)CCNCC2)c1ccc(-c2ccc(Cl)cc2)cc1 | 980 nM
O=C(Nc1ccc2c(c1)CCC2)c1ccc(N2CCN(c3ccncc3)CC2)cn1 | 862 nM
NOCCCCOc1ccc(Br)cc1 | 189 nM
CN(C)[C@@H]1C(O)=C(C(N)=O)C(=O)[C@@]2(O)C(O)=C3C(=O)c4c(O)ccc(C#Cc5ccccn5)c4C[C@H]3C[C@@H]12 | 760 nM
CN(C)CCCNCCS(=O)(=O)c1cccc(Nc2ccc(-c3cccc(N(C)C)c3)cn2)c1 | 859 nM
CCCCc1cc(N2CCC(NC(C)=O)C2)nc(Nc2ccc(C)cc2)n1 (configuration not stated) | 866 nM
O=C(NCc1cccc(F)c1)Nc1cccc(-c2ccc(-c3nc4cc(F)ccc4[nH]3)cc2)c1 | 1050 nM
CC(=O)N(Cc1cccc(-c2cccc(CNCCc3ccccc3)c2)c1)C1CCN(Cc2ccccc2)CC1 | 670 nM
Cc1cccc2nc(-c3cccc(-c4ccc(CN5CCN(CCO)CC5)cc4)c3)[nH]c12 | 823 nM
COc1ccccc1CN1CCC(CNC(=O)c2cc(-c3ccc(N(C)C)cc3)cs2)C1 (configuration not stated) | 1270 nM
COc1ccc2nccc(N3CCC(NCCNCc4cc5c(cn4)OCCO5)C3)c2n1 (configuration not stated) | 578 nM
Nc1c2ccccc2nc2cc(C(F)(F)F)ccc12 | 842 nM
O=C(Nc1ccc(Cl)c(Cl)c1)Nc1ccc(F)c([N+](=O)[O-])c1 | 696 nM
CCOc1ccc(CCC(=O)O)cc1OCC | 1030 nM
C=C[C@H]1CN2CC[C@@H]1C[C@H]2[C@H](O)c1cc(-c2ccc(F)cc2)nc2ccc(OC)cc12 | 169 nM
Cc1ccc(C(=O)Nc2ccc(Nc3ccnc4cc(-c5nccs5)ccc34)cc2O)cc1 | 47.8 nM

Structure (SMILES) | XC50
CC(Cc1ccc(NC(=O)CCNCc2ccccc2)cc1)NCCc1cccc(Cl)c1 (configuration not stated) | 147 nM
COc1cc2nc(N3CC(C)N(C(=O)Cc4ccc(-c5ccccc5)cc4)C(C)C3)nc(N)c2cc1OC (configuration not stated) | 796 nM
O=C(CN1CCN(C(=O)c2ccco2)CC1)Nc1ccc(Br)cc1Cl | 773 nM
CON(CCCN(C)C)C(=N)N | 1080 nM
CCN(CC)C(=O)C1CCN(C(C(=O)N2CCN(CC(=O)N3CCCC3)CC2)c2cc3ccccc3o2)CC1 (configuration not stated) | 707 nM
CN1CCCN(c2ccnc3cc4c(cc23)N(C(=O)c2ccc(Cl)c(Cl)c2)CC4)CC1 | 870 nM
O=C(c1ccc(-c2ccc(-c3nc4ccccc4[nH]3)s2)cc1)N1CCCCC1CN1CCC(O)C1 (configuration not stated) | 1050 nM
CC[C@H]1CN2CC[C@H]1C[C@H]2[C@H](O)c1cc(-c2ccccc2C(F)(F)F)nc2ccc(OC)cc12 | 234 nM
CC(C)c1cc2c(cc1O)C(Cc1ccccc1Cl)N(C)CC2 (configuration not stated) | 732 nM
O=C1COc2ccc3ccccc3c21 | 701 nM
C=CCn1c(SCc2c(C)noc2C)nc2scc(-c3cccs3)c2c1=O | 1100 nM
COc1c(C2CCN(CCCCNC(=O)c3noc(-c4ccc(C#N)cc4)n3)CC2)ccc2c1CCCC2 | 776 nM
Cc1cccc(-c2c(C)nc(N)nc2N)c1 | 1150 nM
COc1ccc2[nH]c(C)cc(=NN=Cc3cccc(F)c3)c2c1 | 285 nM
CC(=O)Nc1nc(C(=O)Nc2ccc(-c3cccc(-c4nc5cc(F)ccc5[nH]4)c3)cc2)cs1 | 292 nM
CC1(C)N=C(NC(=O)Nc2ccc([N+](=O)[O-])cc2)N=C(N)N1OCc1cccc2ccccc12 | 59.5 nM
Cc1ccc(NC(=O)c2ccc(CN3CCCN(Cc4cccc(Cl)c4)CC3)cc2)cc1C | 1210 nM
CC[C@H]1CN2CC[C@H]1C[C@H]2[C@H](O)c1cc(-c2ccc(F)cc2C)nc2ccc(OC)cc12 | 157 nM
Cc1ccc(Cn2c(N3CCC(C(=O)NCc4cccs4)CC3)nc3ccccc32)cc1 | 748 nM
CS(=O)(=O)Nc1ccc2c(C3CCN(CC4CCN(C(=O)/C=C/c5ccc(Cl)c(Cl)c5)CC4)CC3)c[nH]c2c1 | 761 nM
C=C[C@H]1CN2CC[C@H]1C[C@H]2[C@H](O)c1ccnc2ccc(OC)cc12 | 426 nM
COc1ccccc1CCNC(=O)c1cc(Br)cc(N2CCN(c3ccncc3)CC2)c1 | 1270 nM
